Experimental data: BindingDB's records for patent US10053463 (Janssen Pharmaceutica NV, 2018)

molecular target: T1, P2X purinoceptor 7 (Homo sapiens, UniProt Q99572); assay: P2X7 Radioligand Binding
T1 sequence (Q99572 whole entry): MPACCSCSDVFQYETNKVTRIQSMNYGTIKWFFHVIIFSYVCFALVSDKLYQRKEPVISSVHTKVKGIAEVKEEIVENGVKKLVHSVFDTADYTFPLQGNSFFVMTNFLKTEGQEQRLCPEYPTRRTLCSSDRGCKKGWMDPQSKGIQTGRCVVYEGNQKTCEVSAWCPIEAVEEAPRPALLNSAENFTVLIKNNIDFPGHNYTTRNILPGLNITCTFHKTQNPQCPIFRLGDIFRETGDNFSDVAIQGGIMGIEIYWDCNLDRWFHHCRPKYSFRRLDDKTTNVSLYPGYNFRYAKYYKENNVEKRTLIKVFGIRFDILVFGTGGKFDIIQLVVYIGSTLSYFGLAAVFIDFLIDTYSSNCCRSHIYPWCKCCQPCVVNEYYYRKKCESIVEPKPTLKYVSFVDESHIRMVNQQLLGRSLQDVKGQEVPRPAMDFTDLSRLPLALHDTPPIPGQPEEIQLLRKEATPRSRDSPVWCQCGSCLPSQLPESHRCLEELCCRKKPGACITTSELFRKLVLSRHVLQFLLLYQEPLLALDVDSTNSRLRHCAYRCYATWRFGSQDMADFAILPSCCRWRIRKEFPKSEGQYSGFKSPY
Description: human or rat P2X7-1321N1 cells were collected and frozen @−80° C. On the day of the experiment, cell membrane preparations were made according to standard published methods. […] The compound can be prepared as described in the literature. […] The assay was terminated by filtration (GF/B filters pre-soaked with 0.3% PEI) and washed with washing buffer (Tris-HCl 50 mM). The IC50 generated in the binding assay was corrected for tracer concentration and affinity of the tracer to derive at the affinity (K) of the test compounds. […] Data are analyzed and graphed on Graphpad Prism 5.

| Ki [nM] | SMILES |
| --- | --- |
| 20 | NNC(=O)c1ncccn1 [US10053463, 8] |
| 10 | NNC(=O)c1ccncn1 [US10053463, 9] |

| SMILES | Ki [nM] |
| --- | --- |
| O=C1NCCn2c1nnc2-c1cnccn1 [US10053463, 1] | 63.1 |
